This is an account of results in patent publication US20110229482A1, “Method of inhibiting infection by HCV, other flaviviridae viruses, and any other virus that complexes to low density lipoprotein or to very low density lipoprotein in blood by preventing viral entry into a cell” (priority 2000, published 2011).

Assay [1] relates to HCV. In kind it is in vivo, mouse.
Assay [2] deals with HCV. In kind it is cell-based, hepatitis C virus. Also noted: key to Endocytosis of 1 × 10^6 gE HCV from each fraction intensity of staining: ++: Moderately positive; +: Weakly positive.
Assay [3] has as its system LDL receptor. In words: LDL receptor expression in liver sections of hLDLR Tg mice, fluorescence staining. In kind it is in vivo. The conditions noted are these: Tg mouse pretreated with 0.5 mg, then inoculated with HCV.
In assay [4] the target is T1, LDL receptor (Homo sapiens, UniProt P01130).
T1 construct: endogenous in cells; host or cells: G4 B-lymphocyte line (human-mouse heterohybridoma fused with patient B cells), HepG2 hepatoma cells
T1 sequence (P01130 22-860): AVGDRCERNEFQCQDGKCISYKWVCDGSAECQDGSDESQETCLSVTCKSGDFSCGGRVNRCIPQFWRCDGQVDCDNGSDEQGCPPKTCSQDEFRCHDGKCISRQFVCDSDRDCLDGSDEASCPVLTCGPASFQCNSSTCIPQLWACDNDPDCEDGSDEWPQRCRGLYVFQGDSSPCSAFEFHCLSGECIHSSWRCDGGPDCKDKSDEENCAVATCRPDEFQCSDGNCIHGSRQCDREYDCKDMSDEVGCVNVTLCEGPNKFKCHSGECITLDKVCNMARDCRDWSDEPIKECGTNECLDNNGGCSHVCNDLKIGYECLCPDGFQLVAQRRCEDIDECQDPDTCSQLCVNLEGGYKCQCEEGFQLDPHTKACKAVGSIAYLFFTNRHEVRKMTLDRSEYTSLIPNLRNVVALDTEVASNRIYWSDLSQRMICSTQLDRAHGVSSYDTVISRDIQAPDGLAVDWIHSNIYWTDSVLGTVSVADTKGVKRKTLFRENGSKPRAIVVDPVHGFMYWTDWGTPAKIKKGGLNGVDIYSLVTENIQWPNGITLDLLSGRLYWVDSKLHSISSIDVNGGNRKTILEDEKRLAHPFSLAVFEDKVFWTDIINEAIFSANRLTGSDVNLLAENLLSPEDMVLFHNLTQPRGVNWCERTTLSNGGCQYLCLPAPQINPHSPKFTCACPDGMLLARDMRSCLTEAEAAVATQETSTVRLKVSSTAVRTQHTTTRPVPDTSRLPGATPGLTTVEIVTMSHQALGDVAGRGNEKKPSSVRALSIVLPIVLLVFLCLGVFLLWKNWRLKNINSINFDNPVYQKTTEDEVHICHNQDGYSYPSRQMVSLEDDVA
In words: DiI-LDL endocytosis (uptake) by cultured cells, flow cytometry / fluorescence microscopy. In kind it is cell-based. As to conditions: for Mean fluorescence: DiI-LDL treatment. Here is the method:
LDL Receptor Assays: Cells were cultured in Roswell Park Memorial Institute (RPMI) medium supplemented either with 10% BVDV-free bovine calf serum or with RPMI medium supplemented with 10% lipoprotein-deficient BVDV-free medium to upregulate expression of the LDL receptor. The cells were then washed twice with phosphate-buffered saline (PBS), pH 7.2. Cytospin preparations were made, fixed with acetone, blocked with 5% normal mouse serum, and the LDL receptor visualized by incubating the slides with 5 μg/ml purified IgG 2a monoclonal anti-LDL receptor antibody followed by a 1:50 dilution of fluorescein (FITC)-labeled goat anti-mouse [F(ab)′2] second antibody (Jackson Immunoresearch, West Grove, Pa.).
The cells were washed twice with cold PBS and fixed with 1% buffered paraformaldehyde, and cytospin preparations were made for fluorescent microscopic studies or cells in suspension were analyzed by flow cytometry. Flow cytometric analysis was performed using the Epic XL-MCL cytometer (Coulter Corp., Miami, Fla.) using a 575 BP filter. Nonspecific binding of DiI-LDL was determined using DiI-LDL treated with cyclohexanedione and was subtracted from the DiI-LDL binding to give specific DiI-LDL binding to cultured cells.
In general terms: In flow cytometry, cells or beads pass a laser one at a time.

Setting [5] is: density gradient fractions of HCV serum, ISH.

Where two headings read alike, the source gives them in different places.

“5^th repeat peptide: 39 amino acid 5th repeat of the ligand binding domain of the LDL receptor, amino acids 193-231 of SEQ ID NO:1”: the “Inhibition of endocytosis of HCV by hepatocytes” value in assay [1] (hLDLR Tg mouse, 1 mg one hour prior to intraperitoneal HCV (5.0×10^6 gE)) is “completely inhibits”.

Take `O=C(O)CN(CCOCCOCCN(CC(=O)O)CC(=O)O)CC(=O)O` [EGTA, ethylene glycol bis(β-aminoethyl ether)-N,N,N′,N′-tetraacetic acid]: the “Inhibition of endocytosis of HCV” value in assay [2] was “inhibited”.

Consider `CC(C)c1c(C(=O)Nc2ccccc2)c(-c2ccccc2)c(-c2ccc(F)cc2)n1CC[C@@H](O)C[C@@H](O)CC(=O)O` [atorvastatin], for which the “Modulation of LDL receptor (fluorescence staining)” value in assay [3] is given as “upregulation of the LDL receptor”. The “Quantitative HCV of the liver” value in assay [1] (Tg mouse pretreated with 0.5 mg, control mouse 43) came out at 163 HCV gE per mg liver.

Turning to “DiI-LDL: LDL labeled with 1,1′-dioctadecyl-3,3,3′,3′-tetramethylindocarbocyanine iodine (DiI)”, the Mean fluorescence in assay [4] (G4 cells, lipoprotein deficient medium (upregulated LDL receptor)) turned out to be 16 ± 7; in assay [4] (G4 cells, routine culture medium (RPMI with 10% fetal bovine serum)), 4 ± 2.0; in assay [4] (HepG2 cells, routine culture medium), 16 ± 5.

Turning to “LDL: low density lipoprotein, d=1.019-1.063 g/ml, from normal sera or purchased from Cortex”, the “Endocytosis of 5 μg DiI-labeled fraction mean fluorescence (log scale)” value in assay [4] (density gradient fractions of HCV serum) came out at 9.98. For the same compound, the “Inhibition of uptake of DiI-LDL” value in assay [4] (upregulated G4 cells, 5 μg DiI-LDL, excess unlabeled LDL) is listed as “completely inhibited”. Further, in assay [2], the “Restoration of endocytosis of "free" HCV” value is “restoration of endocytosis”. Moreover, in assay [2] (HepG2 or B cells (G4 and E11), 25-100 μg/ml), the “Inhibition of endocytosis of HCV (competitive)” value is on record as “completely inhibited”. Moreover, in assay [2] (setting [5]), the “Endocytosis of 1 × 10^6 gE HCV from each fraction % cell positive” value is 75% and the “Endocytosis of 1 × 10^6 gE HCV from each fraction intensity of staining” value was “+”.

Consider heparin sulfate, for which the “Inhibition of endocytosis of HCV” value in assay [2] (25 units/ml) was “inhibited”.

Regarding “soluble LDL receptor: soluble LDL receptor (SEQ ID NO:1)”, the “Inhibition of endocytosis of HCV” value in assay [2] (Daudi cells, pretreatment 30 minutes at 37° C., HCV 2 hours at 37° C.) is on record as “completely inhibits”.
